These compounds were tested against T1, full length AKT E17K (Homo sapiens, UniProt P31749, E17K) (assay: NanoBRET Target Engagement (TE) Assay). Settings: competitive tracer displacement in living cells, read-out: AKT1 E17K IC50.
T1 construct: host or cells: HEK-293 (ATCC CRL-1573)
Type: cell-based
How it was run: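 Compound and tracer incubated 2 h before luminescence at donor 450 nm and acceptor 600 nm, with extracellular signal inhibited. EC50 by sigmoidal variable-slope regression.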

T1 sequence (P31749 whole entry E17K): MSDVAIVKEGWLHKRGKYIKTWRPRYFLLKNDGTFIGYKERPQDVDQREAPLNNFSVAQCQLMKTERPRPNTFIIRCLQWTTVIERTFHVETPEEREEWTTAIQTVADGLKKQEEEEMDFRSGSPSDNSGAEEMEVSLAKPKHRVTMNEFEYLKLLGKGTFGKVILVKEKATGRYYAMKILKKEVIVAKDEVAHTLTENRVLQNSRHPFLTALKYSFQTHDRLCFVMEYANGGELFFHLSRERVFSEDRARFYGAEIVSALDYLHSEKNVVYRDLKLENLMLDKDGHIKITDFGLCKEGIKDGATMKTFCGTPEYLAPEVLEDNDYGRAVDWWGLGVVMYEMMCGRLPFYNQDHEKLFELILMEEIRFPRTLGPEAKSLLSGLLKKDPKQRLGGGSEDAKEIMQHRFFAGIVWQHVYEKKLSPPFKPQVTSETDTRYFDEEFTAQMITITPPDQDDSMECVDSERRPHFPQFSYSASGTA

| SMILES | IC50 |
| --- | --- |
| N#Cc1ccnc(NC2C3CCC2CN(Cc2ccc(-n4c(-c5cccnc5N)nc5ccc(-c6ccccc6)nc54)cc2)C3)n1 (stereo not drawn) [Example 231, 2-((3-(4-(2-(2-Aminopyridin-3-yl)-5-phenyl-3H-imidazo[4,5-b]pyridin-3-yl)benzyl)-3-azabicyclo[3.2.1]octan-8-yl)amino)pyrimidine-4-carbonitrile] | 600 to 10000 nM |
| [2H]C([2H])([2H])N(c1ccnc(C#N)n1)C1CCN(Cc2ccc(-n3c(-c4cccnc4N)nc4ccc(-c5ccccc5)nc43)cc2)CC1 [Example 232, 4-((1-(4-(2-(2-Aminopyridin-3-yl)-5-phenyl-3H-imidazo[4,5-b]pyridin-3-yl)benzyl)piperidin-4-yl)(methyl-d3)amino)pyrimidine-2-carbonitrile] | < 15 nM |
| [2H]C([2H])([2H])N(c1ncnc(C#N)n1)C1CCN(Cc2ccc(-n3c(-c4cccnc4N)nc4ccc(-c5ccccc5)nc43)cc2)CC1 [Example 233, 4-((1-(4-(2-(2-Aminopyridin-3-yl)-5-phenyl-3H-imidazo[4,5-b]pyridin-3-yl)benzyl)piperidin-4-yl)(methyl-d3)amino)-1,3,5-triazine-2-carbonitrile] | 15 to 60 nM |
| [2H]C([2H])([2H])N(C(=O)c1ccnc(C#N)n1)C1CCN(Cc2ccc(-n3c(-c4cccnc4N)nc4ccc(-c5ccccc5)nc43)cc2)CC1 [Example 234, N-(1-(4-(2-(2-aminopyridin-3-yl)-5-phenyl-3H-imidazo[4,5-b]pyridin-3-yl)benzyl)piperidin-4-yl)-2-cyano-N-(methyl-d3)pyrimidine-4-carboxamide] | < 15 nM |
| N#Cc1nccc(N2CCN(Cc3ccc(-n4c(-c5cccnc5N)nc5ccc(N6CCOCC6)nc54)cc3)CC2)n1 [Example 235, 4-(4-(4-(2-(2-Aminopyridin-3-yl)-5-morpholino-3H-imidazo[4,5-b]pyridin-3-yl)benzyl)piperazin-1-yl)pyrimidine-2-carbonitrile] | 60 to 600 nM |
| N#Cc1ccnc(N2CCN(Cc3ccc(-n4c(-c5cccnc5N)nc5ccc(N6CCOCC6)nc54)cc3)CC2)n1 [Example 236, 2-(4-(4-(2-(2-Aminopyridin-3-yl)-5-morpholino-3H-imidazo[4,5-b]pyridin-3-yl)benzyl)piperazin-1-yl)pyrimidine-4-carbonitrile] | 15 to 60 nM |
| N#Cc1cc(N2CCN(Cc3ccc(-n4c(-c5cccnc5N)nc5ccc(N6CCOCC6)nc54)cc3)CC2)ncn1 [Example 237, 6-(4-(4-(2-(2-Aminopyridin-3-yl)-5-morpholino-3H-imidazo[4,5-b]pyridin-3-yl)benzyl)piperazin-1-yl)pyrimidine-4-carbonitrile] | 15 to 60 nM |
| N#Cc1nccc(N2CCN(Cc3ccc(-n4c(-c5cccnc5N)nc5ccc(-c6cccc(=O)[nH]6)nc54)cc3)CC2)n1 [Example 238, 4-(4-(4-(2-(2-Aminopyridin-3-yl)-5-(6-oxo-1,6-dihydropyridin-2-yl)-3H-imidazo[4,5-b]pyridin-3-yl)benzyl)piperazin-1-yl)pyrimidine-2-carbonitrile] | 15 to 60 nM |
| N#Cc1nccc(NC2CCN(Cc3ccc(-n4c(-c5cccnc5N)nc5ccc(N6CCOCC6)nc54)cc3)CC2)n1 [Example 239, 4-((1-(4-(2-(2-Aminopyridin-3-yl)-5-morpholino-3H-imidazo[4,5-b]pyridin-3-yl)benzyl)piperidin-4-yl)amino)pyrimidine-2-carbonitrile] | < 15 nM |
| N#Cc1ccnc(NC2CCN(Cc3ccc(-n4c(-c5cccnc5N)nc5ccc(N6CCOCC6)nc54)cc3)CC2)n1 [Example 240, 2-((1-(4-(2-(2-Aminopyridin-3-yl)-5-morpholino-3H-imidazo[4,5-b]pyridin-3-yl)benzyl)piperidin-4-yl)amino)pyrimidine-4-carbonitrile] | 15 to 60 nM |
| N#Cc1cc(NC2CCN(Cc3ccc(-n4c(-c5cccnc5N)nc5ccc(N6CCOCC6)nc54)cc3)CC2)ncn1 [Example 241, 6-((1-(4-(2-(2-Aminopyridin-3-yl)-5-morpholino-3H-imidazo[4,5-b]pyridin-3-yl)benzyl)piperidin-4-yl)amino)pyrimidine-4-carbonitrile] | 15 to 60 nM |
| N#Cc1nccc(N2CCN(Cc3ccc(-n4c(-c5cccnc5N)nc5ccc(-c6ccc(F)cc6)nc54)cc3)CC2)n1 [Example 242, 4-(4-(4-(2-(2-Aminopyridin-3-yl)-5-(4-fluorophenyl)-3H-imidazo[4,5-b]pyridin-3-yl)benzyl)piperazin-1-yl)pyrimidine-2-carbonitrile] | 15 to 60 nM |
| N#Cc1ccnc(N2CCN(Cc3ccc(-n4c(-c5cccnc5N)nc5ccc(-c6ccc(F)cc6)nc54)cc3)CC2)n1 [Example 243, 2-(4-(4-(2-(2-Aminopyridin-3-yl)-5-(4-fluorophenyl)-3H-imidazo[4,5-b]pyridin-3-yl)benzyl)piperazin-1-yl)pyrimidine-4-carbonitrile] | 60 to 600 nM |
| N#Cc1nc(C(=O)NCc2ccc(-n3c(-c4cccnc4N)nc4cccnc43)cc2)cs1 [Example 244, N-(4-(2-(2-Aminopyridin-3-yl)-3H-imidazo[4,5-b]pyridin-3-yl)benzyl)-2-cyanothiazole-4-carboxamide] | 600 to 10000 nM |
| N#Cc1nc(C(=O)N2CCN(Cc3ccc(-n4c(-c5cccnc5N)nc5ccc(-c6ccccc6)nc54)cc3)CC2)cs1 [Example 247, 4-(4-(4-(2-(2-Aminopyridin-3-yl)-5-phenyl-3H-imidazo[4,5-b]pyridin-3-yl)benzyl)piperazine-1-carbonyl)thiazole-2-carbonitrile] | < 15 nM |
| N#Cc1ncnc(NC2CC3(CCN(Cc4ccc(-n5c(-c6cccnc6N)nc6ccc(-c7ccccc7)nc65)cc4)CC3)C2)n1 [Example 248, 4-((7-(4-(2-(2-aminopyridin-3-yl)-5-phenyl-3H-imidazo[4,5-b]pyridin-3-yl)benzyl)-7-azaspiro[3.5]nonan-2-yl)amino)-1,3,5-triazine-2-carbonitrile] | < 15 nM |
| N#Cc1ncnc(N2CC3(CCN(Cc4ccc(-n5c(-c6cccnc6N)nc6ccc(-c7ccccc7)nc65)cc4)CC3)C2)n1 [Example 249, 4-(7-(4-(2-(2-aminopyridin-3-yl)-5-phenyl-3H-imidazo[4,5-b]pyridin-3-yl)benzyl)-2,7-diazaspiro[3.5]nonan-2-yl)-1,3,5-triazine-2-carbonitrile] | 15 to 60 nM |

The remaining lines, values ahead:

| IC50 | SMILES |
| --- | --- |
| 15 to 60 nM | N#Cc1ncnc(N2CCCN(Cc3ccc(-n4c(-c5cccnc5N)nc5ccc(-c6ccccc6)nc54)cc3)CC2)n1 [Example 250, 4-(4-(4-(2-(2-Aminopyridin-3-yl)-5-phenyl-3H-imidazo[4,5-b]pyridin-3-yl)benzyl)-1,4-diazepan-1-yl)-1,3,5-triazine-2-carbonitrile] |
| < 15 nM | N#Cc1ncnc(N2CCC3(CCN(Cc4ccc(-n5c(-c6cccnc6N)nc6ccc(-c7ccccc7)nc65)cc4)C3)C2)n1 (stereo not drawn) [Example 251, 4-(7-(4-(2-(2-aminopyridin-3-yl)-5-phenyl-3H-imidazo[4,5-b]pyridin-3-yl)benzyl)-2,7-diazaspiro[4.4]nonan-2-yl)-1,3,5-triazine-2-carbonitrile] |
| 15 to 60 nM | N#Cc1ncnc(N2CCC3(CCN(Cc4ccc(-n5c(-c6cccnc6N)nc6ccc(-c7ccccc7)nc65)cc4)C3)CC2)n1 [Example 252, 4-(2-(4-(2-(2-Aminopyridin-3-yl)-5-phenyl-3H-imidazo[4,5-b]pyridin-3-yl)benzyl)-2,8-diazaspiro[4.5]decan-8-yl)-1,3,5-triazine-2-carbonitrile] |
| 15 to 60 nM | N#Cc1ncnc(N2CCCC3(CCN(Cc4ccc(-n5c(-c6cccnc6N)nc6ccc(-c7ccccc7)nc65)cc4)C3)C2)n1 (stereo not drawn) [Example 253, 4-(2-(4-(2-(2-Aminopyridin-3-yl)-5-phenyl-3H-imidazo[4,5-b]pyridin-3-yl)benzyl)-2,7-diazaspiro[4.5]decan-7-yl)-1,3,5-triazine-2-carbonitrile] |
| < 15 nM | N#Cc1ncnc(N2CCCC3(CCN(Cc4ccc(-n5c(-c6cccnc6N)nc6ccc(-c7ccccc7)nc65)cc4)CC3)C2)n1 [Example 254, 4-(9-(4-(2-(2-Aminopyridin-3-yl)-5-phenyl-3H-imidazo[4,5-b]pyridin-3-yl)benzyl)-2,9-diazaspiro[5.5]undecan-2-yl)-1,3,5-triazine-2-carbonitrile] |
| < 15 nM | N#Cc1ncnc(N2CC[C@@]3(CCN(Cc4ccc(-n5c(-c6cccnc6N)nc6ccc(-c7ccccc7)nc65)cc4)C3)C2)n1 [Example 255, (R)-4-(7-(4-(2-(2-aminopyridin-3-yl)-5-phenyl-3H-imidazo[4,5-b]pyridin-3-yl)benzyl)-2,7-diazaspiro[4.4]nonan-2-yl)-1,3,5-triazine-2-carbonitrile] |
| 15 to 60 nM | C[C@@H]1CN(Cc2ccc(-n3c(-c4cccnc4N)nc4ccc(-c5ccccc5)nc43)cc2)C[C@@H](C)N1c1ncnc(C#N)n1 [Example 256, 4-((2R,6R)-4-(4-(2-(2-Aminopyridin-3-yl)-5-phenyl-3H-imidazo[4,5-b]pyridin-3-yl)benzyl)-2,6-dimethylpiperazin-1-yl)-1,3,5-triazine-2-carbonitrile] |
| 15 to 60 nM | N#Cc1ncnc(N2CC3CCC2CN3Cc2ccc(-n3c(-c4cccnc4N)nc4ccc(-c5ccccc5)nc43)cc2)n1 (stereo not drawn) [Example 257, 4-(5-(4-(2-(2-Aminopyridin-3-yl)-5-phenyl-3H-imidazo[4,5-b]pyridin-3-yl)benzyl)-2,5-diazabicyclo[2.2.2]octan-2-yl)-1,3,5-triazine-2-carbonitrile] |
| < 15 nM | N#Cc1nccc(N2CCN(Cc3ccc(-n4c(-c5cccnc5N)nc5ccc(C6CC6)nc54)cc3)CC2)n1 [Example 258, 4-(4-(4-(2-(2-Aminopyridin-3-yl)-5-cyclopropyl-3H-imidazo[4,5-b]pyridin-3-yl)benzyl)piperazin-1-yl)pyrimidine-2-carbonitrile] |
| < 15 nM | N#Cc1nccc(N2CCN(Cc3ccc(-n4c(-c5cccnc5N)nc5ccc(-c6ccc[nH]c6=O)nc54)cc3)CC2)n1 [Example 259, 4-(4-(4-(2-(2-Aminopyridin-3-yl)-5-(2-oxo-1,2-dihydropyridin-3-yl)-3H-imidazo[4,5-b]pyridin-3-yl)benzyl)piperazin-1-yl)pyrimidine-2-carbonitrile] |

— patent US12209087B2, “AKT1 modulators” (Alterome Therapeutics, Inc., priority 2022, dated 2025)
